# Laboratory results published in US20230066011A1, “PYRROLOPYRIMIDINE DERIVATIVE, AND PHARMACEUTICAL COMPOSITION FOR PREVENTING OR TREATING PROTEIN KINASE-RELATED DISEASE COMPRISING SAME AS ACTIVE INGREDIENT” (VORONOI CO., LTD., priority 2019, published 2023).
# Assays:
# [1] = biological target: T1, human GST-DYRK1A (Homo sapiens, UniProt Q13627); test: GST-DYRK1A enzyme inhibition, ADP-Glo kinase assay; type: biochemical; settings: ATP 10 μM, GST-DYRK1A full length, read-out: DYRK1 IC50
# T1 construct: purified human GST-DYRK1A (full length, Thermo Scientifics) enzyme; purchased Thermo Scientifics
# In short: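 Full-length human GST-DYRK1A (10 ng) with 10 μM ATP and specific substrate in 40 mM Tris-HCl pH 7.4, 20 mM MgCl2, 0.5 mg/mL BSA, 50 μM DTT, 1 h at 25 °C. ADP formation read by ADP-Glo luminescence relative to solvent control; IC50 from three data sets.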
# [2] = biological target: LRRK2 (G2019S) (Homo sapiens, UniProt Q5S007, G2019S); test: LRRK2 G2019S enzyme inhibition, ADP-Glo kinase assay; type: biochemical; parameters: purchased SignalChem L10-12GG; settings: ATP 25 μM
# LRRK2 (G2019S), sequence (Q5S007 970-2527 G2019S limits assumed): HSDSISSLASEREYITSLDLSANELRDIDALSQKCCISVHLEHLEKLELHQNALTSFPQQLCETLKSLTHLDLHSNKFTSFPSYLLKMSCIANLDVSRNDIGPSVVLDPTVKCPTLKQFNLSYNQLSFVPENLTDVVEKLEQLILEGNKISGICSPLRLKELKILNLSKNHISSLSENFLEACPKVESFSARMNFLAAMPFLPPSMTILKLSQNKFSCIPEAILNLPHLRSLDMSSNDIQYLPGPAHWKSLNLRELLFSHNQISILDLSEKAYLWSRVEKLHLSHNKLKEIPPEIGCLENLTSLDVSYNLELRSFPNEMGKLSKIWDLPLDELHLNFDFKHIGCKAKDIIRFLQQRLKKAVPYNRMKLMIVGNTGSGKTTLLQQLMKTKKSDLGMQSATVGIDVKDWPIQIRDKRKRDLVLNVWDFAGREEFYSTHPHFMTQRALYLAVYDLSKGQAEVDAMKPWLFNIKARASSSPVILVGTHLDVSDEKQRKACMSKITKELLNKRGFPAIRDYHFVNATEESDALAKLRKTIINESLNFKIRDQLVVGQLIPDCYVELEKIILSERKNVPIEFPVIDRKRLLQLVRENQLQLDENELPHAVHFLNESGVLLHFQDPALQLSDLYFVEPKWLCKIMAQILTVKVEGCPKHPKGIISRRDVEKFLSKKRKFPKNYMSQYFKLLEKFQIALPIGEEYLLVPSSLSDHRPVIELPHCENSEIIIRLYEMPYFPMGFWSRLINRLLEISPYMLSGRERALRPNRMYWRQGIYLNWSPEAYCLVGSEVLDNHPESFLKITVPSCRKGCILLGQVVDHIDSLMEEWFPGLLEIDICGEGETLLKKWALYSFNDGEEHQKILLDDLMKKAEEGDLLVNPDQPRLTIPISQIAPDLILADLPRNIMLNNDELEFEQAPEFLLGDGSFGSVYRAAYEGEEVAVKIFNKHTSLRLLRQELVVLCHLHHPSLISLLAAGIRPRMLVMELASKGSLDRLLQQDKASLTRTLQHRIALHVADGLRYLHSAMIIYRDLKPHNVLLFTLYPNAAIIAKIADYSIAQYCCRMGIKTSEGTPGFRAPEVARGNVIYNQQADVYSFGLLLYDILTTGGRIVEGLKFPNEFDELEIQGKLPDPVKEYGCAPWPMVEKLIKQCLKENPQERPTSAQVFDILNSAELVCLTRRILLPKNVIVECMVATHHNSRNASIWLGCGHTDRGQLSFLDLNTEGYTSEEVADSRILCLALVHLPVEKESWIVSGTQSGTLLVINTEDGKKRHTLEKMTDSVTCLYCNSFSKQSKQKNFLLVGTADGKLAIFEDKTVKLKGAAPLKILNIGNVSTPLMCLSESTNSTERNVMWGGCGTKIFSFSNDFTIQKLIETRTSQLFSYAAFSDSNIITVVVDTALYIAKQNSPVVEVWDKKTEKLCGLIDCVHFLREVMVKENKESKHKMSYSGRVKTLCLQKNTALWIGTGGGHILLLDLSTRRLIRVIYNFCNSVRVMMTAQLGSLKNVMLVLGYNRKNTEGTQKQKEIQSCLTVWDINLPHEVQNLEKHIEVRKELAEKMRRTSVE
# In short: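 Purified human LRRK2 G2019S (16 ng) with 25 μM ATP and 0.2 μg substrate, 2 h at 25° C. in Tris-HCl pH 7.4, MgCl2, BSA, DTT buffer; compounds at 12 final concentrations, 50 μM down to 0.000001024 μM. ADP-Glo luminescence versus solvent control gave IC50.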
# [3] = biological target: LRRK2 (Homo sapiens, UniProt Q5S007); test: LRRK2 enzyme inhibition, ADP-Glo kinase assay; type: biochemical; parameters: purchased Invitrogen PR8604B; settings: ATP 10 μM
# LRRK2, sequence (Q5S007 970-2527 limits assumed): as the sequence (Q5S007 970-2527 G2019S limits assumed) above, with S1050G counted along it
# In short: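 Purified human LRRK2 (25 ng) with 10 μM ATP and 0.2 μg substrate in 40 mM Tris-HCl pH 7.4, 20 mM MgCl2, 0.5 mg/mL BSA, 50 μM DTT, 2 h at 25° C. ADP-Glo luminescence; 12-point compound series from 50 μM final; IC50 relative to solvent control.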
# [4] = test system: MDA-MB-468 cell line; test: Inhibition of proliferation of MDA-MB-468 cancer cells (Cell Titer-Glo); type: cell-based; settings: Homo sapiens, MDA-MB-468, 72 hours
# In short: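 Step one, seed 2,000 cells per well in DMEM or RPMI. Step two, add compound at 11 final concentrations (10 to 0.000169 μM, 3-fold series) and culture for 72 hours. Step three, add Cell Titer-Glo, wait 10 min at room temperature, read luminescence and calculate GI50.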
IC50 [1] [nM],IC50 [2] [nM],IC50 [3] [nM],GI50 [4] [nM],Compound
< 100,< 100,< 100,301 to 1000,"O=C(c1ccc(Nc2nc(NC3CC3)c3c(C(F)(F)F)c[nH]c3n2)c2c1CCO2)N1CCC(N2CCOCC2)CC1 [Example 434, (7-((4-(cyclopropyl-amino)5-(trifluoromethyl)-7H-pyrrolo[2,3-d]pyrimidin-2-yl)amino)-2,3-dihydrobenzo-furan-4-yl)(4-morpho-linopiperidin-1-yl)methanone]"
–,101 to 300,101 to 300,301 to 1000,COc1cc(S(=O)(=O)N2CCC(N3CCOCC3)CC2)ccc1Nc1nc(C2CC2)c2c(C(F)(F)F)c[nH]c2n1 [Example 226]
–,< 100,< 100,301 to 1000,"O=C(c1ccc(Nc2nc(C3CC3)c3c(C(F)(F)F)c[nH]c3n2)c2c1OCCO2)N1CCC(N2CCOCC2)CC1 [Example 228, (8-((4-cyclopropyl-5-(trifluoromethyl)-7H-pyrrolo[2,3-d]pyrimidin-2-yl)amino)-2,3-dihydrobenzo[b][1,4]dioxin-5-yl)(4-morpholinopiperidin-1-yl)methanone]"
< 100,< 100,< 100,101 to 300,"O=C(c1ccc(Nc2nc(NC3CCCC3)c3c(C(F)(F)F)c[nH]c3n2)c2c1OCCO2)N1CCN(C2COC2)CC1 [Example 414, (8-((4-(cyclopentyl-amino)-5-(trifluoromethyl)-7H-pyrrolo[2,3-d]pyrimidin-2-yl)amino)-2,3-dihydrobenzo[b] [1,4]dioxin-5-yl) (4-(oxetan-3-yl)piperazin-1-yl)methanone]"
< 100,< 100,< 100,301 to 1000,"CCNc1nc(Nc2ccc(C(=O)N3CCC(N4CCOCC4)CC3)c3c2OCC3)nc2[nH]cc(C(F)(F)F)c12 [Example 438, (7-((4-(ethylamino)-5-(trifluoromethyl)-7H-pyrrolo[2,3-d]pyrimidin-2-yl)amino)-2,3-dihydrobenzo-furan-4-yl)(4-morpho-linopiperidin-1-yl)methanone]"
301 to 1000,–,< 100,51 to 100,"N#Cc1c[nH]c2nc(Nc3ccc(C(=O)N4CCOCC4)c4c3OCCO4)nc(NCC3CCCC3)c12 [Example 133, 4-((cyclopentylmethyl)amino)-2-((8-(morpholine-4-carbonyl)-2,3-dihydrobenzo[b][1,4]dioxin-5-yl)amino)-7H-pyrrolo[2,3-d]pyrimidine-5-carbonitrile]"
< 100,< 100,< 100,301 to 1000,CCNc1nc(Nc2ccc(C(=O)N3CCC(N4C[C@@H]5C[C@H]4CO5)CC3)c3c2OCC3)nc2[nH]cc(C(F)(F)F)c12 [Example 468]
< 100,< 100,< 100,301 to 1000,"O=C(c1ccc(Nc2nc(NC3CC3)c3c(C(F)(F)F)c[nH]c3n2)c2c1OCCO2)N1CCN(C2COC2)CC1 [Example 405, (8-((4-(cyclo-propylamino)-5-(trifluoromethyl)-7H-pyrrolo[2,3-d]pyrimidin-2-yl)amino)-2,3-dihydrobenzo[b] [1,4]dioxin-5-yl) (4-(oxetan-3-yl)piperazin-1-yl)methanone]"

# Second part, the compound before the results:
Compound,IC50 [1] [nM],IC50 [2] [nM],IC50 [3] [nM],GI50 [4] [nM]
"CNc1nc(Nc2ccc(S(=O)(=O)N3CCC(N4CCOCC4)CC3)c3c2OCCO3)nc2[nH]cc(C(F)(F)F)c12 [Example 219, N^4-methyl-N^2-(8-((4-morpholinopiperidin-1-yl)sulfonyl)-2,3-dihydrobenzo[b][1,4]dioxin-5-yl)-5-(trifluoromethyl)-7H-pyrrolo[2,3-d]pyrimidine-2,4-diamine]",< 100,< 100,< 100,301 to 1000
"CCCNc1nc(Nc2ccc(C(=O)N3CCC(N4CCOCC4)CC3)c3c2OCC3)nc2[nH]cc(C(F)(F)F)c12 [Example 446, (4-morpholino-piperidin-1-yl)(7-((4-(propylamino)-5-(trifluoromethyl)-7H-pyrrolo[2,3-d]pyrimidin-2-yl)amino)-2,3-dihydrobenzo-furan-4-yl)methanone]",< 100,< 100,< 100,301 to 1000
"N#Cc1c[nH]c2nc(Nc3ccc(C(=O)N4CCC(N5CCOCC5)CC4)c4c3OCCO4)nc(C3CC3)c12 [Example 221, 4-cyclopropyl-2-((8-(4-morpholinopiperidine-1-carbonyl)-2,3-dihydrobenzo[b][1,4]dioxin-5-yl)amino)-7H-pyrrolo[2,3-d]pyrimidine-5-carbonitrile]",< 100,–,< 100,301 to 1000
"CCNc1nc(Nc2ccc(S(=O)(=O)N3CCC(N4CCOCC4)CC3)c3c2OCCO3)nc2[nH]cc(C(F)(F)F)c12 [Example 430, N^4-ethyl-N^2-(8-((4-morpholino-piperidin-1-yl)sulfonyl)-2,3-dihydro-benzo[b][1,4]dioxin-5-yl)-5-(trifluoromethyl)-7H-pyrrolo[2,3-d]pyrimidine-2,4-diamine]",301 to 1000,< 100,< 100,301 to 1000
"CNc1nc(Nc2ccc(C(=O)N3CCN(C4COC4)CC3)c3c2OCCO3)nc2[nH]cc(C(F)(F)F)c12 [Example 397, (8-((4-(methylamino)-5-(trifluoromethyl)-7H-pyrrolo[2,3-d]pyrimidin-2-yl)amino)-2,3-dihydrobenzo[b] [1,4]dioxin-5-yl) (4-(oxetan-3-yl)piperazin-1-yl)methanone]",101 to 300,< 100,< 100,301 to 1000
"CNc1nc(Nc2ccc(C(=O)N3CCC(N4CCOCC4)CC3)c3c2OCC3)nc2[nH]cc(C(F)(F)F)c12 [Example 217, (7-((4-(methylamino)-5-(trifluoromethyl)-7H-pyrrolo[2,3-d]pyrimidin-2-yl)amino)-2,3-dihydrobenzofuran-4-yl)(4-morpholinopiperidin-1-yl)methanone]",< 100,< 100,< 100,301 to 1000
"COCCNc1nc(Nc2ccc(C(=O)N3CCC(N4CCOCC4)CC3)c3c2OCC3)nc2[nH]cc(C(F)(F)F)c12 [Example 443, (7-((4-((2-methoxyethyl)amino)-5-(trifluoromethyl)-7H-pyrrolo[2,3-d]pyrimidin-2-yl)amino)-2,3-dihydrobenzo-furan-4-yl)(4-morpho-linopiperidin-1-yl)methanone]",< 100,< 100,< 100,301 to 1000
"COCCNc1nc(Nc2ccc(C(=O)N3CCN(C4COC4)CC3)c3c2OCCO3)nc2[nH]cc(C(F)(F)F)c12 [Example 403, (8-((4-((2-methoxyethyl)-amino)-5-(trifluoromethyl)-7H-pyrrolo[2,3-d]pyrimidin-2-yl)amino)-2,3-dihydrobenzo[b] [1,4]dioxin-5-yl) (4-(oxetan-3-yl)piperazin-1-yl)methanone]",< 100,–,< 100,301 to 1000
"C=CCNc1nc(Nc2ccc(S(=O)(=O)N3CCC(N4CCOCC4)CC3)cc2OC)nc2[nH]cc(C#N)c12 [Example 361, 4-(allylamino)-2-((2-methoxy-4-((4-morpholino-piperidin-1-yl)sulfonyl)phenyl)amino)-7H-pyrrolo[2,3-d]pyrimidine-5-carbonitrile]",301 to 1000,< 100,< 100,< 50
"O=C(c1ccc(Nc2nc(NC3CCC3)c3c(C(F)(F)F)c[nH]c3n2)c2c1OCCO2)N1CCN(C2COC2)CC1 [Example 407, (8-((4-(cyclo-butylamino)-5-(trifluoromethyl)-7H-pyrrolo[2,3-d]pyrimidin-2-yl)amino)-2,3-dihydrobenzo[b] [1,4]dioxin-5-yl) (4-(oxetan-3-yl)piperazin-1-yl)methanone]",< 100,–,< 100,301 to 1000
